Patent publication US20040122033A1, “Combination therapy for the treatment of obesity” (priority 2002, published 2004)
Like-named read-outs stand apart in the source and are kept apart here.

How the values were obtained:
[1] = in vivo; cited from earlier work
[2] = test system: Wild type or MCH1R KO mice; details: for 2 hour food intake: 1 μg MT-II icv at onset of dark cycle, vs aCSF vehicle
Procedure: Wild type or MCH1R KO mice were implanted with intracerebroventricular (icv) cannulae for icv administration of compounds. One microgram of MT-II was given by icv injection per animal at the onset of dark cycle and food intake was measured 2 hours post-injection. Overnight body weight differences were also measured. Artificial cerebrospinal fluid (aCSF) was used as a vehicle to dissolve MT-II.

[3] = test system: wild type, NPY KO mice, and AGRP-NPY double KO mice; experiment: CB-1 inverse agonist - NPY knock out mouse study (overnight food intake); format: in vivo; details: 3 mg/kg orally
Procedure: AM25 1 was given to wild type, NPY KO Mice, and AGRP-NPY double KO mice orally at 3 mg/kg. Overnight food intake was measured.

[4] = test system: wild type and MCH1R KO mice; experiment: CB-1 inverse agonist - MCH1R knock out mouse study (2 hour and overnight food intake); format: in vivo; details: 5 mg/kg orally
Procedure: AM251 was given to wild type and MCH1R KO mice orally at 5 mg/kg. Two hour and overnight food intake were measured.

CC1(C)O[C@@H]2[C@@H](CO[C@@]3(COS(N)(=O)=O)OC(C)(C)O[C@@H]23)O1 [Topiramate]
weight loss [1]: increase weight loss

Melanotan-II [MT-II]
overnight body weight compared to vehicle treated mice ([2]; MCH1R KO mice, 1 μg MT-II icv): reduced body weight | 2 hour food intake ([2]; MCH1R KO mice): significantly inhibited | decrease of overnight food intake ([2]; MCH-1R knock out mice, 1 μg MT-II icv, overnight): greater than 80% | decrease in food intake, MCH-1R knock out mice versus wild type mice ([2]; MT-II treated MCH-1R knock out mice compared with MT-II treated wild type mice, FIG. 1): significantly greater decrease in food intake | overnight decrease in bodyweight, MCH-1R knock out mice versus wild type mice ([2]; MT-II treated MCH-1R knock out mice compared with MT-II treated wild type mice, FIG. 2): greater overnight decrease in bodyweight | overnight body weight compared to vehicle treated mice ([2]; wild type mice, 1 μg MT-II icv): reduced body weight | 2 hour food intake ([2]; wild type mice): significantly inhibited

Cc1c(C(=O)NN2CCCCC2)nn(-c2ccc(Cl)cc2Cl)c1-c1ccc(I)cc1 [AM251]
overnight food intake ([3]; AGRP-NPY double KO mice): significantly inhibits | overnight food intake ([3]; NPY KO mice): significantly inhibits | overnight food intake ([3]; wild type mice): significantly inhibits | 2 hour food intake ([4]; MCH1R KO mice): significantly inhibited | overnight food intake ([4]; MCH1R KO mice, 5 mg/kg): inhibits | overnight food intake ([4]; MCH1R KO mice, listed as AM 251, 5 mg/kg): significantly inhibited | 2 hour food intake ([4]; wild type mice): significantly inhibited | overnight food intake ([4]; wild type mice, 5 mg/kg): inhibits | overnight food intake ([4]; wild type mice, listed as AM 251, 5 mg/kg): significantly inhibited
